Measurements reported in US20250073249A1, “STEROID COMPOUND, AND PREPARATION METHOD THEREFOR AND USE THEREOF” (SHANGHAI INSTITUTE OF MATERIA MEDICA, CHINESE ACADEMY OF …, priority 2022, published 2025).
Numbering of substitutions follows the chain as printed.

Columns and labels:
[1] = molecular target: T1, AR(T877A) (Homo sapiens, UniProt P10275, T878A); assay: Mutant AR antagonistic activity test, T877A (reporter gene in HEK293 cells); assay type: cell-based; details: for IC50: HEK293 cells, DHT 10 nM, 24 hours, read-out: T877A IC50(nM) 1st gen AR antagonist resistant mutation
T1 construct: expressed in transfected cells; host or cells: HEK293
T1 sequence (P10275 1-920 T878A): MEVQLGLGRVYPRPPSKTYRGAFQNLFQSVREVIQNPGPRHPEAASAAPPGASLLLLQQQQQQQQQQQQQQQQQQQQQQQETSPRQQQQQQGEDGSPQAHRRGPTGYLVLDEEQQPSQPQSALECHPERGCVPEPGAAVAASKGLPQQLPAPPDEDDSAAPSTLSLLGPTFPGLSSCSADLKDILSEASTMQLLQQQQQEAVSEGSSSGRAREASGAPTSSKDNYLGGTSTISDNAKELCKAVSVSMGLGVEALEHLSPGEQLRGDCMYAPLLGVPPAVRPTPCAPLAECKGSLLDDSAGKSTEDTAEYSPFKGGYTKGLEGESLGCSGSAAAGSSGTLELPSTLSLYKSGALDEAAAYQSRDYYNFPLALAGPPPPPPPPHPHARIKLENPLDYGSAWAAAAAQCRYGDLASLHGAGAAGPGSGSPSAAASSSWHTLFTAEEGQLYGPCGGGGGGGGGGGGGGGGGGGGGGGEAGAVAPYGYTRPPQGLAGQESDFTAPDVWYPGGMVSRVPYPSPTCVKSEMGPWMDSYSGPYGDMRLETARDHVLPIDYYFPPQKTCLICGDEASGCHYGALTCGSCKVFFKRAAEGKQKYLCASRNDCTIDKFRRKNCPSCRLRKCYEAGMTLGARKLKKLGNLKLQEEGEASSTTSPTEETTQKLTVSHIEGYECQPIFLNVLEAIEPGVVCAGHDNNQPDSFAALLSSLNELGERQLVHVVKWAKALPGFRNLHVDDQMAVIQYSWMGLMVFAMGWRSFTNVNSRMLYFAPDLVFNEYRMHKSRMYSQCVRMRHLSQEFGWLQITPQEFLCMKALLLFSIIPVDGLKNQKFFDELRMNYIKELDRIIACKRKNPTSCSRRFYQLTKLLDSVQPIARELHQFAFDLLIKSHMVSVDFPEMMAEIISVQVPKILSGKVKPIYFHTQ
Experimental: HEK293 cells were cultured in DMEM supplemented with 10% FBS and 1% GlutaMax at 37° C. with 5% CO2. The day before transfection, the medium was changed to DMEM containing 10% charcoal-stripped FBS and 1% GlutaMax. […] The cell suspension was diluted with cell seeding solution, and the transfection reagent was added to achieve 500,000 cells/mL. Subsequently, 90 μL of cell suspension was seeded into each well of the assay plate. The next day, compounds were prepared: starting from 8 mM, 3-fold serial dilutions were performed in DMSO for a total of 8 points, then 500 nL was transferred to the compound plate using Echo. The compounds were then diluted with 40 μL of medium to 10× final concentration, and 10 μL was transferred to the cell plate and incubated at 37° C. for 30 minutes. Subsequently, 10 nL of DHT at a final concentration of 10 nM was transferred to each well of the assay plate using TECAN. After 24 hours of incubation, 100 μL of Steady-Glo was added to the assay plate and read on an Envision reader. Data were determined and analyzed using GraphPad Prism.

[2] = molecular target: T2, wild-type AR (Homo sapiens, UniProt P10275); assay: Wild-type AR antagonist activity test (luciferase reporter in HEK293 cells); assay type: cell-based; details: for IC50: HEK293 cells, luciferase expression, DHT 1.5 nM, 24 hours; for AR antagonist activity, times higher than that of the control enzalutamide: ratio to enzalutamide IC50
T2 construct: expressed in transfected cells; host or cells: HEK293
T2 sequence (P10275 1-920): T1 sequence (P10275 1-920 T878A) with A878T
Experimental: HEK293 cells were cultured in DMEM containing 10% fetal bovine serum (FBS) at 37° C. with 5% CO2. The cells were then digested with trypsin and counted. A 10 μL/well transfection solution was prepared in opti-MEM containing 5 ng androgen receptor clone, 100 ng pGL4.36 vector, and 315 nL fugene. […] The diluted cell suspension was seeded into 96-well plates at 90 μL (40,000 cells/well), and the plates were incubated for 24 hours. Then, 10 μL of drug solution (including gradient diluted compounds or DMSO) was added, and the plates were incubated for 30 minutes. […] After 24 hours of incubation, 100 μL of Steady-Glo was added to each well of the plate, the plate was shaken at room temperature for 20 minutes, and read on an Envision.

Question: With `Cc1cn(C2=CCC3C4CC=C5C[C@@H](NC(=O)c6ccncc6)CC[C@]5(C)C4CC[C@]23C)cn1` (stereo partly drawn) [Compound 14, N-((3S,10R,13S)-10,13-dimethyl-17-(4-methyl-1H-imidazol-1-yl)-2,3,4,7,8,9,10,11,12,13,14,15-dodecahydro-1H-cyclopenta[a]phenanthren-3-yl)isonicotinamide] as the compound, how does the IC50 [1] read?
Answer: 209 nM

Question: And the IC50 [2]?
Answer: 247 nM

Question: And the “AR antagonist activity, times higher than that of the control enzalutamide” value [2]?
Answer: 1.8 times

Question: What does the source list for `Cc1cn(C2=CCC3C4CC=C5C[C@@H](NC(=O)c6ccc(F)cc6)CC[C@]5(C)C4CC[C@]23C)cn1` (stereo partly drawn) [Compound 33, N-((3S,10R,13S)-17-(4-methyl-1H-imidazol-1-yl)-10,13-dimethyl-2,3,4,7,8,9,10,11,12,13,14,15-dodecahydro-1H-cyclopenta[a]phenanthren-3-yl)-4-fluorobenzamide]?
Answer: IC50 [1]: 79.8 nM; T877A antagonistic activity, fold improvement compared to enzalutamide ([1]; ratio to enzalutamide IC50): 1.4 fold; IC50 [2]: 120 nM; AR antagonist activity, times higher than that of the control enzalutamide [2]: 3.6 times

Question: `Cc1cn(C2=CCC3C4CC=C5C[C@@H](NC(=O)c6ccc(S(C)(=O)=O)cc6)CC[C@]5(C)C4CC[C@]23C)cn1` (stereo partly drawn) [Compound 35, N-((3S,10R,13S)-17-(4-methyl-1H-imidazol-1-yl)-10,13-dimethyl-2,3,4,7,8,9,10,11,12,13,14,15-dodecahydro-1H-cyclopenta[a]phenanthren-3-yl)-4-(methylsulfonyl)benzamide] was tested. Which IC50 [1] did it give?
Answer: 462 nM

Question: And the IC50 [2]?
Answer: 433 nM

Question: For `Cc1cn(C2=CCC3C4CC=C5C[C@@H](NC(=O)c6ccc(F)cc6F)CC[C@]5(C)C4CC[C@]23C)cn1` (stereo partly drawn) [Compound 37, N-((3S,10R,13S)-17-(4-methyl-1H-imidazol-1-yl)-10,13-dimethyl-2,3,4,7,8,9,10,11,12,13,14,15-dodecahydro-1H-cyclopenta[a]phenanthren-3-yl)-2,4-difluorobenzamide], which IC50 [1] is on record?
Answer: 281 nM

Question: What about the IC50 [2] of the same compound?
Answer: 235 nM

Question: What about the “AR antagonist activity, times higher than that of the control enzalutamide” value [2] of the same compound?
Answer: 1.9 times
